How the values were obtained:
TACE enzyme = TACE enzyme (Homo sapiens (Human), UniProt P78536); conditions: WO 00/44709, page 251, table 10, example 61; cited from earlier work
[1] = target: Recombinant Human ADAM17 catalytic domain (Homo sapiens (Human), UniProt P78536); test: TACE (ADAM17) isolated enzyme assay, profluorescent peptidic substrate; conditions: read-out: TACE enz IC50; ADAM17 catalytic domain 500 nM, 40 μM substrate, two hours
Description: Activity of the compounds was investigated using TACE (ADAM17) isolated enzyme. […] Mca fluorescence was quenched by the Dpa group until cleavage by ADAM17 at the Ala-Val bond separates the two moieties.
The enzymatic reaction was performed in 384-well microplates with a final volume of 10 μL containing 1% DMSO. Recombinant Human ADAM17 catalytic domain (500 nM) was assayed with 40 μM of substrate and serial dilutions of tested inhibitors (from 10000 nM to 0.04 nM). After two hours of incubation at room temperature, the fluorescence was measured using a microplate reader (320/425 nm).
Data were normalized using the average of positive controls (enzyme with no inhibitor) and negative controls (no enzyme). IC50 were calculated using a four-parameters logistic model.

[2] = target: Recombinant Human catalytic domains of MMP1 (Homo sapiens (Human), UniProt P03956); test: MMP1 isolated enzyme assay, profluorescent peptidic substrate; format: biochemical; conditions: 10 minutes incubation at room temperature; read-out: MMP1 enz IC50
Excerpt: Activity of the compounds was investigated using MMP1 isolated enzyme.

[3] = tested on: TNFα secretion from LPS stimulated frozen Peripheral Blood Mononuclear Cells (PBMC); test: inhibition of TNFα secretion from LPS stimulated human PBMC (hPBMC assay); format: cell-based; conditions: LPS 1 μg/mL, overnight incubation, TNFα by HTRF
Description: Activity of the compounds was investigated using human peripheral blood mononuclear cells (hPBMC). This assay was designed to measure the inhibition of the TNFα secretion from LPS stimulated frozen Peripheral Blood Mononuclear Cells (PBMC) isolated from human blood. TNFα levels were measured using HTRF® Human TNFα kit (Cisbio #62TNFPEC) which is a rapid and quantitative sandwich immunoassay based on TR-FRET technology.
Frozen PBMC were quickly thawed, resuspended in culture medium (RPMI 10% inactivated FBS) and viable cells were seeded in 96-well plates (50,000 cells/well). […] After overnight incubation at 37° C., 10 μL of cell supernatant were mixed with 5 μL of each tagged anti-TNFα specific antibody as recommended by the supplier. After 2 hours of incubation at room temperature, the HTRF® signals were measured using a microplate reader (wavelengths: excitation=337 nm, first emission=620 nm, second emission=665 nm).

Sequence of Recombinant Human ADAM17 catalytic domain (P78536 223-474): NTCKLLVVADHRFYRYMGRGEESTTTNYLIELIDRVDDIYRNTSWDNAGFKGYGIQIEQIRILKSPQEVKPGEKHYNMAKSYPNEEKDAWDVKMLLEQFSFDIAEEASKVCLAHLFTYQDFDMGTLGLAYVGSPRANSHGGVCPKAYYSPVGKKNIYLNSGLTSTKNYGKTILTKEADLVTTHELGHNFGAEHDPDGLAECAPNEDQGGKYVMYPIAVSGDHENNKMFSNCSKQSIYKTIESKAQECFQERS
Sequence of Recombinant Human catalytic domains of MMP1 (P03956 98-276): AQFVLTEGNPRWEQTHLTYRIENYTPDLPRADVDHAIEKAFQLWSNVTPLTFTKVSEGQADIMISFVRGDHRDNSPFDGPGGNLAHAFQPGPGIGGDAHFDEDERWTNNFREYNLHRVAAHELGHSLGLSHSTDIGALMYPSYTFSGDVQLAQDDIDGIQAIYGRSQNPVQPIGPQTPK
Sequence of TACE enzyme (P78536 215-824): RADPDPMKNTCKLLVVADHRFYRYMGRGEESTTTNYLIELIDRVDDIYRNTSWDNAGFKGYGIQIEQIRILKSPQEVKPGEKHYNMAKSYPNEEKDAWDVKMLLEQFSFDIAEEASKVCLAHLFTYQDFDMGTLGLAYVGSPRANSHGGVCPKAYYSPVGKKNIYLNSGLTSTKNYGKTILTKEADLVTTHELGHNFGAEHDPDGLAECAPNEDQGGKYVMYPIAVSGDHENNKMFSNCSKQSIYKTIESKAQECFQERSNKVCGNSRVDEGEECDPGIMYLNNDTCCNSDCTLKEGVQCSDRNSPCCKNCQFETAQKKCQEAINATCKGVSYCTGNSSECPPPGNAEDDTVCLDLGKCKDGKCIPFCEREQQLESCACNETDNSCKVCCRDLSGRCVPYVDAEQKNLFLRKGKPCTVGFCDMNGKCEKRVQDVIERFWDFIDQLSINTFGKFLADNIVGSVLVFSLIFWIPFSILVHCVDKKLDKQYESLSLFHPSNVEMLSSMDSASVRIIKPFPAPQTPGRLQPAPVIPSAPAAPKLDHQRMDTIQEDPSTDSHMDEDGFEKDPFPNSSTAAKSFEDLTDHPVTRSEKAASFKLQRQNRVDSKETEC

| Compound | selectivity for the TACE enzyme compared with certain MMPs (TACE enzyme) | IC50 [1] [nM] | IC50 [2] [nM] | IC50 [3] [nM] |
| --- | --- | --- | --- | --- |
| CC1(C)SCCN(S(=O)(=O)c2ccc(OCC#CCO)cc2)[C@H]1C(=O)NO [Apratastat] | not selective | – | – | – |
| Cc1cc(COc2ccc(S(=O)(=O)NC3(C(=O)NO)CN(C(=O)C(C)C)C3)cc2)c2ccccc2n1 [Example 7b, N-hydroxy-1-isobutyryl-3-((4-((2-methylquinolin-4-yl)methoxy)phenyl)sulfonamido)azetidine-3-carboxamide] | – | 5.2 | > 10000 | < 50 |
| Cc1cc(COc2ccc(S(=O)(=O)NC3(CC(=O)NO)CN(C(=O)N4CCN(C)CC4)C3)cc2)c2ccccc2n1 [Example 10, N-hydroxy-2-(1-(4-methylpiperazine-1-carbonyl)-3-((4-((2-methylquinolin-4-yl)methoxy)phenyl)sulfonamido)azetidin-3-yl)acetamide] | – | 2.8 | > 10000 | < 50 |
| Cc1cc(COc2ccc(S(=O)(=O)NC3(CC(=O)NO)CN(C(=O)CC(C)(C)C)C3)cc2)c2ccccc2n1 [Example 11, 2-(1-(3,3-dimethylbutanoyl)-3-((4-((2-methylquinolin-4-yl)methoxy)phenyl)sulfonamido)azetidin-3-yl)-N-hydroxyacetamide] | – | 8.2 | > 10000 | < 50 |
| Cc1cc(COc2ccc(S(=O)(=O)NC3(CC(=O)NO)CN(C(=O)C(C)(C)N(C)C)C3)cc2)c2ccccc2n1 [Example 18, 2-(1-(2-(dimethylamino)-2-methylpropanoyl)-3-((4-((2-methylquinolin-4-yl)methoxy)phenyl)sulfonamido)azetidin-3-yl)-N-hydroxyacetamide] | – | 3.5 | > 10000 | < 50 |
| Cc1cc(COc2ccc(S(=O)(=O)NC3(C(=O)NO)CN(C(=O)CC4CCC4)C3)cc2)c2ccccc2n1 [Example 26f, 1-(2-cyclobutylacetyl)-N-hydroxy-3-((4-((2-methylquinolin-4-yl)methoxy)phenyl)sulfonamido)azetidine-3-carboxamide] | – | 11.4 | > 10000 | < 50 |
| Cc1cc(COc2ccc(S(=O)(=O)NC3(C(=O)NO)CN(C(=O)C(C)C)C3)cc2)c2cccc(C)c2n1 [Example 27, 3-((4-((2,8-dimethylquinolin-4-yl)methoxy)phenyl)sulfonamido)-N-hydroxy-1-isobutyrylazetidine-3-carboxamide] | – | – | – | 100 to 500 |
| Cc1cc(COc2ccc(S(=O)(=O)NC3(CC(=O)NO)CN(C(=O)N4CCN(C(C)C)CC4)C3)cc2)c2ccccc2n1 [Example 28a, N-hydroxy-2-(1-(4-isopropylpiperazine-1-carbonyl)-3-((4-((2-methylquinolin-4-yl)methoxy)phenyl)sulfonamido)azetidin-3-yl)acetamide] | – | – | – | < 50 |
| CCN1CCN(C(=O)N2CC(CC(=O)NO)(NS(=O)(=O)c3ccc(OCc4cc(C)nc5ccccc45)cc3)C2)CC1 [Example 28b, 2-(1-(4-ethylpiperazine-1-carbonyl)-3-((4-((2-methylquinolin-4-yl)methoxy)phenyl)sulfonamido)azetidin-3-yl)-N-hydroxyacetamide] | – | 5.6 | > 10000 | < 50 |
| Cc1cc(COc2ccc(S(=O)(=O)NC3(C(=O)NO)CN(C(=O)CC(C)C)C3)cc2)c2cccc(F)c2n1 [Example 29, 3-((4-((8-fluoro-2-methylquinolin-4-yl)methoxy)phenyl)sulfonamido)-N-hydroxy-1-(3-methylbutanoyl)azetidine-3-carboxamide] | – | – | – | 100 to 500 |
| Cc1cc(COc2ccc(S(=O)(=O)N(C)C3(C(=O)NO)CN(C(=O)C(C)C)C3)cc2)c2cccc(F)c2n1 [Example 30, 3-((4-((8-fluoro-2-methylquinolin-4-yl)methoxy)-N-methylphenyl)sulfonamido)-N-hydroxy-1-isobutyrylazetidine-3-carboxamide] | – | – | – | < 50 |
| Cc1cc(COc2ccc(S(=O)(=O)NC3(CC(=O)NO)CN(C(=O)N4CCN(C)CC4)C3)cc2)c2cccc(C)c2n1 [Example 31, 2-(3-((4-((2,8-dimethylquinolin-4-yl)methoxy)phenyl)sulfonamido)-1-(4-methylpiperazine-1-carbonyl)azetidin-3-yl)-N-hydroxyacetamide] | – | – | – | 50 to 100 |

— US10556883B2, “Benzenesulfonamide compounds, method for synthesizing same, and use thereof in medicine and cosmetics” (GALDERMA RESEARCH & DEVELOPMENT, priority 2016, dated 2020)
